The values that follow come from patent publication US5409937A, “Hexahydrofuro(2,3-b)furans as PAF antagonists” (British Biotech Pharmaceuticals Limited, priority 1991, dated 1995).

The target of this assay is T1, PAF receptor (Homo sapiens, UniProt P25105).
T1 construct: washed human platelet membranes; from tissue; host or cells: human platelets (platelet concentrates from a hospital blood bank), lysed washed membranes
T1 sequence (P25105 whole entry): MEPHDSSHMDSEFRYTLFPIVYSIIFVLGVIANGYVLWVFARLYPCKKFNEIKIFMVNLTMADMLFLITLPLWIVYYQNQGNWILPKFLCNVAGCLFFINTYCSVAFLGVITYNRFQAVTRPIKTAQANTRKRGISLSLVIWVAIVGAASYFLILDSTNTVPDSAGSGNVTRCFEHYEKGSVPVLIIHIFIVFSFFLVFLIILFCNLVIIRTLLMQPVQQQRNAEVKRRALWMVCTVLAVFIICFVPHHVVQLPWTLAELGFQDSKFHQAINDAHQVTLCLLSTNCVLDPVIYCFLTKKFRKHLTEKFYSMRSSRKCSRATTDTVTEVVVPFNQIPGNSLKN
The assay can be described thus: Inhibition of [^3 H]-PAF binding to washed human platelet membranes. As to conditions: 0.5 nM [^3 H]-PAF, 1 hour at 0° C., pH 7.0, 0.25% BSA. The procedure:
Inhibition of [^3 H]-PAF binding to washed human platelet membranes
In common with the compounds of the invention (general formula I) those of Examples 1-13 it PAF-induced functions at both cellular and tissue levels by inhibition of PAF binding to its specific receptor site. The inhibition of [^3 H]-PAF binding to washed human platelet membranes by representative compounds was determined by isotopic labelling and filtration techniques. Platelet concentrates were obtained from a hospital blood bank. These platelet concentrates (500-2500 ml.) were centrifuged at 800 rpm for 10 minutes in a SORVALL RC3B centrifuge to remove the red blood cells present. (The word SORVALL is a trade mark.) The supenatant was subsequently centrifuged at 3,000 rpm in a SORVALL RC3B centrifuge to pellet the platelets present. The platelet rich pellets were resuspended in a minimum volume of buffer (150 mM NaCl, 10 mM Tris, 2 mM EDTA, pH 7.5) and layered onto Ficoll-Paque gradients, 9 ml platelet concentrate to 2 ml Ficoll, and centrifuged at 1,900 rpm for 15 minutes in a SORVALL RT6000 centrifuge. This step removes the residual red blood cells and other nonspecific material such as lymphocytes from the preparation. The platelets which form a band between the plasma and the Ficoll were removed, resuspended in the above buffer and centrifuged at 3,000 rpm for 10 minutes in a SORVALL RT6000 centrifuge. […]
The assay was conducted by preparing a series of Tris-buffered solutions of the selected antagonist of predetermined concentrations. […] Each washed residue was dried under vacuum on a sampling manifold and placed into vials containing 20 ml of OPTIPHASE MP scintillation fluid and the radioactivity counted in a liquid scintillation counter. (The word OPTIPHASE is a trade mark.) Defining the counts for total binding with antagonist from a test sample as "TBA"; the counts for total binding from the control sample C1 as "TB"; and the counts for nonspecific binding from the control sample C2 as "NSB", the percent inhibition of each test antagonist can be determined by the following equation: […]
One may read the IC50 as the concentration needed to halve the response being measured. The low end stands for higher potency, the high end for lower potency. On to `Cc1nc2cnccc2n1C[C@H]1C[C@@H]2C[C@@H](c3ccc(F)cc3)O[C@@H]2O1` (relative stereo) [Example 2, 5-(4-Fluorophenyl)-2-(1H-2-methylimidazo[4,5-c]pyrid-1-ylmethyl)hexahydrofuro[2,3-b]furan], for which the IC50 is 240 nM.
For `Cc1nc2ccccc2n1C[C@H]1C[C@@H]2C[C@H](c3ccc(F)cc3)O[C@@H]2O1` (relative stereo) [1(e), (2R*, 3aS*, 5R*, 6aR*)-5-(4-fluorophenyl)-2-(1H-2-methylbenzimidazol-1-ylmethyl)hexahydrofuro[2,3-b]furan] the value was 450 nM; for `Cc1nc2ccccc2n1C[C@H]1C[C@@H]2C[C@@H](c3ccc(F)cc3)O[C@@H]2O1` (relative stereo) [1(d), (2R*, 3aS*, 5S*, 6aR*)-5-(4-Fluorophenyl)-2-(1H-2-methylbenzimidazol-1-ylmethyl)hexahydrofuro[2,3-b]furan], 8000 nM.
